From publication PMC3513558 (European journal of medicinal chemistry, 2012)
“Also recorded” adds a separate entry of the source.

Target: intracellular HCV NS5B RdRp activity in BHK-NS5B-FRLuc reporter cells (Hepatitis C virus genotype 1b, UniProt P26663)
Test: BHK-NS5B-FRLuc reporter assay, intracellular NS5B RdRp activity
Type: cell-based
Settings: 100 µM, 42 hours, RLuc/FLuc vs DMSO

intracellular HCV NS5B RdRp activity in BHK-NS5B-FRLuc reporter cells, sequence (P26663 2420-3010): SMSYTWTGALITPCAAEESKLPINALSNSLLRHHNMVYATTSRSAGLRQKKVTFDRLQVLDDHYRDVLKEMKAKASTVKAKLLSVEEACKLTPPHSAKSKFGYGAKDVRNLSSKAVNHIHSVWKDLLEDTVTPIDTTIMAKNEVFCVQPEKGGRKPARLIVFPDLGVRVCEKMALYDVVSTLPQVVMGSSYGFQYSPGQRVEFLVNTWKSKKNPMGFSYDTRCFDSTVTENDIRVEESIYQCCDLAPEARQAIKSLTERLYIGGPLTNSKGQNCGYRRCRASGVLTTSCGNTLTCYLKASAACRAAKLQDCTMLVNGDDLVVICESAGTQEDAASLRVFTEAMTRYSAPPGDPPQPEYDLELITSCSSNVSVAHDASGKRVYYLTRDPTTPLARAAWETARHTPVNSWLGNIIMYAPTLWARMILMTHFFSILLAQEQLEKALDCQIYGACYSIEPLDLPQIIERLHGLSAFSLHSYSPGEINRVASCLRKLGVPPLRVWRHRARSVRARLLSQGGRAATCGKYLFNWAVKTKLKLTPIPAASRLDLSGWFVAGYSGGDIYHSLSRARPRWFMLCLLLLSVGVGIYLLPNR

Cc1cc(O)c(C(c2ccc(Cl)c(Cl)c2)c2c(O)cc(C)oc2=O)c(=O)o1 [Compound 8, 3,3'-[(3,4-Dichlorophenyl)methylene]bis(4-hydroxy-6-methyl-2H-pyran-2-one)]
% Inhibition of intracellular NS5B RdRp activity: did not inhibit; also recorded: No inhibition
